Test results from patent US10676462B2, “Quinoline derivative” (ONO PHARMACEUTICAL CO., LTD., priority 2013, dated 2020).

What was measured:
Axl enzyme = molecular target: T1, Axl enzyme (Homo sapiens, UniProt P30530); test: Measurement of an Axl inhibitory activity (LanthaScreen TR-FRET, in vitro test); assay type: biochemical
T1 construct: a solution containing 400 ng/mL Axl enzyme was prepared
T1 sequence (P30530 26-894): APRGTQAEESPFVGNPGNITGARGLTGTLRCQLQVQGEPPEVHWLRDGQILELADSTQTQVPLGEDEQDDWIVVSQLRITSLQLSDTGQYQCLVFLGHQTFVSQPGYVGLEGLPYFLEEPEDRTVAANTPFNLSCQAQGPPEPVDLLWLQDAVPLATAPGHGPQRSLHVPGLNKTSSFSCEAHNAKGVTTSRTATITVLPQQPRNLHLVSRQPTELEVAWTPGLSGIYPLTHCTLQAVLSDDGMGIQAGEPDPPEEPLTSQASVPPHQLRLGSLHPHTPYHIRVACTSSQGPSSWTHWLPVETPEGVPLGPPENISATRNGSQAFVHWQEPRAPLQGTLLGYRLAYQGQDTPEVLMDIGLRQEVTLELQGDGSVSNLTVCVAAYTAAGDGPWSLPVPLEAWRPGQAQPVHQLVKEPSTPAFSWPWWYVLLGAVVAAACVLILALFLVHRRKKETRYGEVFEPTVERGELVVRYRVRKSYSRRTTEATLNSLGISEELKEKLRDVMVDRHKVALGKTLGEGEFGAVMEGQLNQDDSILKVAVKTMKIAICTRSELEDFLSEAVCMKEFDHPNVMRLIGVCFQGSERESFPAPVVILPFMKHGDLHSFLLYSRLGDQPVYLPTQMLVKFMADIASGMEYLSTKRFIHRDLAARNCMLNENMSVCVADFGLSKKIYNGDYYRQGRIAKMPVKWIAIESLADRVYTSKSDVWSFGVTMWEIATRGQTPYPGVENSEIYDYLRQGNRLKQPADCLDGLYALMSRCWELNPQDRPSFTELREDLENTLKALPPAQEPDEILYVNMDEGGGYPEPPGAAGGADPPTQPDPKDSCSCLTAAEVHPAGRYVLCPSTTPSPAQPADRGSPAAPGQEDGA
Protocol: Biological Example 1: Measurement of an Axl Inhibitory Activity (In Vitro Test)
An Axl enzyme inhibitory activity was measured by using LanthaScreen (registered trademark) system (Invitrogen) based on the attached instruction. The reagents used are shown below.
Reaction buffer solution: a solution containing 50 mmol/L HEPES (pH7.5), 0.01% Brij35, 10 mmol/L MgCl2 and 1 mmol/L EGTA was prepared by using purified water.
Test substance solution: a solution containing a test compound of 5-fold concentration with respect to the final concentration was prepared by 20-fold diluting a DMSO solution of test compound of each concentration with the reaction buffer solution.
Enzyme solution: a solution containing 400 ng/mL Axl enzyme was prepared by using the reaction buffer solution.
Substrate solution: a solution containing 45 μmmol/L ATP and 500 nmmol/L Fluorescein-Poly GT (Invitrogen) was prepared by using the reaction buffer solution.
Detection solution: a solution containing 20 mM EDTA and 4 nM PY20 (Invitrogen) was prepared by using Dilution B (Invitrogen).
A 10 mmol/L DMSO solution of the test compound was dispensed into a 96-well plate (Nunc), and, furthermore, a 3-fold dilution series was prepared using DMSO. In each well of the 96-well plate for measurement, 5 μL each of the reaction buffer solution containing DMSO was added to a Blank group and a medium group, and 5 μL of the test substance solution was added to the test substance group, respectively. Next, 10 μL/well of the reaction buffer solution was added to the Blank group, and 10 μL/well each of the enzyme solution was added to the medium group and the test compound group, followed by stirring at room temperature for 10 min. After the completion of stirring, 10 μL each of the substrate solution was added into each well, followed by stirring at room temperature with light shielded for one hour. After the completion of reaction, 25 μL each of the detection solution was added to each well, and stood still at room temperature with light shielded for 30 min. After standing sill, fluorescence intensity at 520 nm and 495 nm at the time of irradiation with exciting light of 340 nm was measured by using Analyst GT (Molecular Devices). The phosphorylation of the artificial substrate was quantified by Time-resolved Fluorescence Resonance Energy Transfer (TR-FRET). TR-FRET ratio was calculated by dividing 520 nm fluorescence signal by 495 nm fluorescence signal for each well, and the inhibition rate (%) in the test compound group was calculated based on the following mathematical formula. Inhibition rate (%)=[1−(TR-FRET ratio of test compound group−A)/(B−A)×100 [Math. 1] A: average value of TR-FRET ratios of Blank group B: average value of TR-FRET ratios of medium group
Values of 50% inhibition rate (IC50 values) of the test compound were calculated from the inhibition curve based on the inhibition rate of the test compounds in each concentration.

KDR = KDR (Homo sapiens, UniProt P35968); test: Evaluation of kinase selectivity (in vitro test), KDR; assay type: biochemical; conditions: Axl selective inhibitory activity with respect to KDR, ratio of IC50 values
Protocol: Biological Example 3: Evaluation of Kinase Selectivity (In Vitro Test)
Similar to Biological Example 1, values of 50% inhibition rate (IC50 value) with respect to various kinases (KDR, DDR1, FLT4, and ROS) of the test compound were measured. The Axl selective inhibitory activity of the test compound with respect to kinases, for example, KDR, was calculated based on the above-mentioned ratio of the IC50 values. As the test compound, for the compound of the present invention, the compounds of Examples 5, 5(1), 17(2), and 23(2) were used, and for the comparative compounds, the compound of Example 5 (Comparative compound C) and the compound of Example 92 (Comparative compound D) described in Patent Literature 5, having the following structure, were used.

Chain of KDR (P35968 20-1356): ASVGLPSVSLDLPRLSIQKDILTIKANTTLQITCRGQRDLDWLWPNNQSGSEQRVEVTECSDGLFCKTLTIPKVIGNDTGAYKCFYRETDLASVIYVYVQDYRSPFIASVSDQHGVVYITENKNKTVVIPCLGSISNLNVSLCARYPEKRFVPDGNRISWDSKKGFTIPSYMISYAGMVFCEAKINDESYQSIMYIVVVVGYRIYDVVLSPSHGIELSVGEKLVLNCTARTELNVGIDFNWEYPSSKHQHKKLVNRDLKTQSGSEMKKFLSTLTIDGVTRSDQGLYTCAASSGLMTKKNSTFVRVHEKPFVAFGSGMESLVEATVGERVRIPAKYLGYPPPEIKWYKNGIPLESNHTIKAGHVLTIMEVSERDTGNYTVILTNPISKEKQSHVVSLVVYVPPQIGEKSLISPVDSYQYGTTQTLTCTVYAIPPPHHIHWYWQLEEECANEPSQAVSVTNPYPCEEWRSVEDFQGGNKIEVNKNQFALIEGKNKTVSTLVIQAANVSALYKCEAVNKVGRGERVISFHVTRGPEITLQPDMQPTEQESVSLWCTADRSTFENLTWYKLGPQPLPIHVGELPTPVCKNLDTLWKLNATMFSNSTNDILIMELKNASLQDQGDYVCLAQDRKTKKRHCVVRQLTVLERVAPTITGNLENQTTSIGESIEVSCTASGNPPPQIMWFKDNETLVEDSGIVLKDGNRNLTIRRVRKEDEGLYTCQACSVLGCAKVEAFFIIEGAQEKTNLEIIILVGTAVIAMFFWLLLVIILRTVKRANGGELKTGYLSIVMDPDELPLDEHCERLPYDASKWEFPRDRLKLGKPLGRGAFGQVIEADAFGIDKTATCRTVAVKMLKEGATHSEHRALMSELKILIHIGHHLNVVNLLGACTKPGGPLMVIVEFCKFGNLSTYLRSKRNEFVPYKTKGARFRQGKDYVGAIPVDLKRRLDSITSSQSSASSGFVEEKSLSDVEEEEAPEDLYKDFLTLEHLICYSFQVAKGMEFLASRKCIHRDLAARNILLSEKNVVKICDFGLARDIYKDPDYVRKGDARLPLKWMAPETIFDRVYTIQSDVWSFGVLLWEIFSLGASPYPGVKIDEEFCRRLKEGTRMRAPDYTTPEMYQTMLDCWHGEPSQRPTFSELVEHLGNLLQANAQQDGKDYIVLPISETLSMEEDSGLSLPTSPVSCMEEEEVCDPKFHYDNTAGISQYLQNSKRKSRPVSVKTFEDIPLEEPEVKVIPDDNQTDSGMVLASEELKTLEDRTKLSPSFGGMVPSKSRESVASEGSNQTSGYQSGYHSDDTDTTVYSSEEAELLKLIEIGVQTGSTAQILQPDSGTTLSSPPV

IC50 (Axl enzyme) [nM] | KDR [IC50]/Axl [IC50] (KDR) | SMILES
4.4 | about 650 times | O=C1CCCc2c1cc(C(=O)Nc1ccc(Oc3ccnc4cc(OCCCN5CCOCC5)ccc34)cn1)c(=O)n2-c1ccccc1 [Example 17(2), N-[5-({7-[3-(4-morpholinyl)propoxy]-4-quinolinyl}oxy)-2-pyridinyl]2,5-dioxo-1-phenyl-1,2,5,6,7,8-hexahydro-3-quinolinecarboxamide]
5.6 | about 1800 times | COc1cc2nccc(Oc3ccc(NC(=O)c4cc5c(n(-c6ccccc6)c4=O)CC(C)(C)CC5=O)nc3)c2cc1OC [Example 5(1), N-{5-[(6,7-dimethoxy-4-quinolinyl)oxy]-2-pyridinyl}-7,7-dimethyl-2,5-dioxo-1-phenyl-1,2,5,6,7,8-hexahydro-3-quinolinecarboxamide]
1.1 | about 520 times | COc1cc2nccc(Oc3ccc(NC(=O)c4cc5c(n(-c6ccccc6)c4=O)CCCC5=O)c(C)c3)c2cc1OC [Example 23(2), N-{4-[(6,7-dimethoxy-4-quinolinyl)oxy]-2-methylphenyl}-2,5-dioxo-1-phenyl-1,2,5,6,7,8-hexahydro-3-quinolinecarboxamide]

SMILES | IC50 (Axl enzyme) [nM] | KDR [IC50]/Axl [IC50] (KDR)
COc1cc2nccc(Oc3ccc(NC(=O)c4cc5c(n(-c6ccccc6)c4=O)CCCC5=O)nc3)c2cc1OC [Example 5, N-{5-[(6,7-dimethoxy-4-quinolinyl)oxy]-2-pyridinyl}-2,5-dioxo-1-phenyl-1,2,5,6,7,8-hexahydro-3-quinolinecarboxamide] | 2.2 | about 900 times
